Results taken from patent publication US20210395651A1, “COMPOUNDS STABILIZING HYDROLASES IN LIQUIDS” (BASF SE, priority 2018, published 2021).

biological target: T1, Lipolase® 100L (Thermomyces lanuginosus, UniProt O59952); assay: Lipase storage stability in liquid formulations at 37° C. (pNP-valerate activity); type: biochemical, Thermomyces lanuginosa; conditions: base formulation I. (Lipolase 0.2 wt%, tested compound 2.5 wt%); 3 d storage at 37° C.
T1 construct: purchased Sigma-Aldrich
T1 sequence (O59952 23-291): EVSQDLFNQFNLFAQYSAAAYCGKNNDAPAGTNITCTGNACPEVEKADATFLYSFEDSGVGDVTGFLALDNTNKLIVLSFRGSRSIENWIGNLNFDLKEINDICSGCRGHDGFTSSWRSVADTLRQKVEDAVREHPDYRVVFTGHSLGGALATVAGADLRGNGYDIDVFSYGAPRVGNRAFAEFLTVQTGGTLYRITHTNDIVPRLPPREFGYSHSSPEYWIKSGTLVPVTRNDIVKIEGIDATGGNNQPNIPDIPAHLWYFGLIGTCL
Experimental: The storage stability of Lipase was assessed at 37° C.
Base test formulations were manufactured by making base formulations I to V by mixing the components according to Table 1.
The respective component (a) or comparative compound was added, if applicable, to the respective base formulation in amounts as indicated in Table 1.
Lipase used: Lipolase® 100L (CAS-No. 9001-62-1, EC-No. 232-619-9) was purchased from Sigma-Aldrich.
The amount of lipase as provided in Table 1 refers to active protein.
Water was added to accomplish the balance to 100.
Lipolase activity at certain points in time as indicated in Table 2 was be determined by employing pNitrophenol-valerate (2.4 mM pNP-C5 in 100 mM Tris pH 8.0, 0.01% Triton X100) as a substrate. The absorption at 405 nm was measured at 20° C. every 30 seconds over 5 minutes.
The slope (absorbance increase at 405 nm per minute) of the time dependent absorption-curve is directly proportional to the activity of the lipase.
The […] activity values provided in Table 2 were calculated referring to the 100% value determined in the reference formulation at the time 0.
The nomenclature of formulations is as follows: the Roman number before the full stop characterizes the base formulation, the Arabian number the type of compound (A.# compound according to invention (component (a)); (B.#) comparative compound).

| Substance | lipase activity, 3 d [%] |
| --- | --- |
| Diethylcitrate [A.7] | 97 |

same assay, conditions: base formulation I. (Lipolase 0.2 wt%, tested compound 2.5 wt%); 7 d storage at 37° C.

| Substance | lipase activity, 7 d [%] |
| --- | --- |
| Diethylcitrate [A.7] | 91 |

same assay, conditions: base formulation I. (Lipolase 0.2 wt%, tested compound 2.5 wt%); 14 d storage at 37° C.

| Substance | lipase activity, 14 d [%] |
| --- | --- |
| Diethylcitrate [A.7] | 85 |

same assay, conditions: base formulation I. (Lipolase 0.2 wt%, tested compound 2.5 wt%); 21 d storage at 37° C.

| Substance | lipase activity, 21 d [%] |
| --- | --- |
| Diethylcitrate [A.7] | 81 |

same assay, conditions: base formulation I. (Lipolase 0.2 wt%, tested compound 2.5 wt%); 28 d storage at 37° C.

| Substance | lipase activity, 28 d [%] |
| --- | --- |
| Diethylcitrate [A.7] | 76 |

same assay, conditions: base formulation I. (Lipolase 0.2 wt%, tested compound 2.5 wt%); 35 d storage at 37° C.

| Substance | lipase activity, 35 d [%] |
| --- | --- |
| Diethylcitrate [A.7] | 69 |

same assay, conditions: base formulation I. (Lipolase 0.2 wt%, tested compound 2.5 wt%); T0; relative to 100% value of reference formulation at time 0

| Substance | lipase activity, T0 [%] |
| --- | --- |
| Diethylcitrate [A.7] | 99 |

same assay, conditions: base formulation II. (Lipolase 0.2 wt%, tested compound 2.5 wt%); 3 d storage at 37° C.

| Substance | lipase activity, 3 d [%] |
| --- | --- |
| Diethylcitrate [A.7] | 94 |

same assay, conditions: base formulation II. (Lipolase 0.2 wt%, tested compound 2.5 wt%); 7 d storage at 37° C.

| Substance | lipase activity, 7 d [%] |
| --- | --- |
| Diethylcitrate [A.7] | 91 |

same assay, conditions: base formulation II. (Lipolase 0.2 wt%, tested compound 2.5 wt%); 14 d storage at 37° C.

| Substance | lipase activity, 14 d [%] |
| --- | --- |
| Diethylcitrate [A.7] | 86 |

same assay, conditions: base formulation II. (Lipolase 0.2 wt%, tested compound 2.5 wt%); 21 d storage at 37° C.

| Substance | lipase activity, 21 d [%] |
| --- | --- |
| Diethylcitrate [A.7] | 82 |

same assay, conditions: base formulation II. (Lipolase 0.2 wt%, tested compound 2.5 wt%); 28 d storage at 37° C.

| Substance | lipase activity, 28 d [%] |
| --- | --- |
| Diethylcitrate [A.7] | 77 |

same assay, conditions: base formulation II. (Lipolase 0.2 wt%, tested compound 2.5 wt%); 35 d storage at 37° C.

| Substance | lipase activity, 35 d [%] |
| --- | --- |
| Diethylcitrate [A.7] | 72 |

same assay, conditions: base formulation II. (Lipolase 0.2 wt%, tested compound 2.5 wt%); T0; relative to 100% value of reference formulation at time 0

| Substance | lipase activity, T0 [%] |
| --- | --- |
| Diethylcitrate [A.7] | 99 |

same assay, conditions: base formulation III. (Lipolase 0.2 wt%, tested compound 2.0 wt%); 3 d storage at 37° C.

| Substance | lipase activity, 3 d [%] |
| --- | --- |
| Diethylcitrate [A.7] | 96 |

same assay, conditions: base formulation III. (Lipolase 0.2 wt%, tested compound 2.0 wt%); 7 d storage at 37° C.

| Substance | lipase activity, 7 d [%] |
| --- | --- |
| Diethylcitrate [A.7] | 93 |

same assay, conditions: base formulation III. (Lipolase 0.2 wt%, tested compound 2.0 wt%); 14 d storage at 37° C.

| Substance | lipase activity, 14 d [%] |
| --- | --- |
| Diethylcitrate [A.7] | 87 |

same assay, conditions: base formulation III. (Lipolase 0.2 wt%, tested compound 2.0 wt%); 21 d storage at 37° C.

| Substance | lipase activity, 21 d [%] |
| --- | --- |
| Diethylcitrate [A.7] | 83 |

same assay, conditions: base formulation III. (Lipolase 0.2 wt%, tested compound 2.0 wt%); 28 d storage at 37° C.

| Substance | lipase activity, 28 d [%] |
| --- | --- |
| Diethylcitrate [A.7] | 77 |

same assay, conditions: base formulation III. (Lipolase 0.2 wt%, tested compound 2.0 wt%); 35 d storage at 37° C.

| Substance | lipase activity, 35 d [%] |
| --- | --- |
| Diethylcitrate [A.7] | 72 |

same assay, conditions: base formulation III. (Lipolase 0.2 wt%, tested compound 2.0 wt%); T0; relative to 100% value of reference formulation at time 0

| Substance | lipase activity, T0 [%] |
| --- | --- |
| Diethylcitrate [A.7] | 97 |

same assay, conditions: base formulation IV. (Lipolase 0.2 wt%, tested compound 2.0 wt%); 3 d storage at 37° C.

| Substance | lipase activity, 3 d [%] |
| --- | --- |
| Diethylcitrate [A.7] | 95 |

same assay, conditions: base formulation IV. (Lipolase 0.2 wt%, tested compound 2.0 wt%); 7 d storage at 37° C.

| Substance | lipase activity, 7 d [%] |
| --- | --- |
| Diethylcitrate [A.7] | 93 |

same assay, conditions: base formulation IV. (Lipolase 0.2 wt%, tested compound 2.0 wt%); 14 d storage at 37° C.

| Substance | lipase activity, 14 d [%] |
| --- | --- |
| Diethylcitrate [A.7] | 88 |

same assay, conditions: base formulation IV. (Lipolase 0.2 wt%, tested compound 2.0 wt%); 21 d storage at 37° C.

| Substance | lipase activity, 21 d [%] |
| --- | --- |
| Diethylcitrate [A.7] | 85 |

same assay, conditions: base formulation IV. (Lipolase 0.2 wt%, tested compound 2.0 wt%); 28 d storage at 37° C.

| Substance | lipase activity, 28 d [%] |
| --- | --- |
| Diethylcitrate [A.7] | 80 |

same assay, conditions: base formulation IV. (Lipolase 0.2 wt%, tested compound 2.0 wt%); 35 d storage at 37° C.

| Substance | lipase activity, 35 d [%] |
| --- | --- |
| Diethylcitrate [A.7] | 74 |

same assay, conditions: base formulation IV. (Lipolase 0.2 wt%, tested compound 2.0 wt%); T0; relative to 100% value of reference formulation at time 0

| Substance | lipase activity, T0 [%] |
| --- | --- |
| Diethylcitrate [A.7] | 97 |
